The values that follow come from patent US11573281B2, “Magnetic resonance fingerprinting method for recordings with a contrast agent” (Bayer Aktiengesellschaft, priority 2018, dated 2023).

Where two headings read alike, the source gives them in different places.

Data set [1] is described as follows: molar relaxivity of Gd-EOB-DTPA in bile. It is filed as physicochemical.
Data set [2] is described as follows: molar relaxivity of Gd-EOB-DTPA in urine. It counts as physicochemical.
Data set [3] in a line: molar relaxivity of Gd-EOB-DTPA in plasma. It is filed as physicochemical. The note with it: plasma vs bile.
Data set [4] in a line: molar relaxivity of Gd-EOB-DTPA in blood. It is filed as physicochemical.
Data set [5] is described as follows: molar relaxivity of Gd-EOB-DTPA in liver tissue. It counts as physicochemical. The note with it: for molar relaxivity: Liver tissue.
For data set [6] the following is noted: Water, Rohrer et al., cited from earlier work.
The conditions of data set [7]: Plasma, Rohrer et al., cited from earlier work.
The conditions of data set [8]: Blood, cited from earlier work.
The conditions of data set [9]: Liver tissue, 0.47 T; Schuhmann-Giampieri et al.; cited from earlier work.

On to `CCOc1ccc(CC(CN(CCN(CC(=O)[O-])CC(=O)[O-])CC(=O)[O-])N(CC(=O)[O-])CC(=O)[O-])cc1.[Gd+3].[Na+].[Na+]` (centres unmarked) [Gd-EOB-DTPA, gadolinium ethoxybenzyl diethylenetriaminepentaacetic acid], for which the molar relaxivity in data set [1] (1.41 T) was 5.6 ± 0.3 (s·mmol/L)^−1; in data set [1] (1.5 T) it was 5.6 ± 0.4 (s·mmol/L)^−1; in [1] (3 T), 5.6 ± 0.3 (s·mmol/L)^−1; in [2] (1.41 T) it was 5.5 ± 0.1 (s·mmol/L)^−1; in [2] (1.5 T), 5.5 ± 0.2 (s·mmol/L)^−1; in data set [2] (3 T), 5.6 ± 0.1 (s·mmol/L)^−1. Besides, the molar relaxivity was 8.1 ± 0.2 (s·mmol/L)^−1 in [4] (1.41 T); 8.3 ± 0.3 (s·mmol/L)^−1 in data set [4] (1.5 T); 7.2 ± 0.1 (s·mmol/L)^−1 in [4] (3 T); 14.0 ± 2.8 (s·mmol/L)^−1 in data set [5] (1.41 T); 16.4 ± 3.1 (s·mmol/L)^−1 in data set [5] (1.5 T); 13.4 ± 4.0 (s·mmol/L)^−1 in data set [5] (3 T). Moreover, the molar relaxivity in [6] (0.47 T) is given as 5.3^(1) (s·mmol/L)^−1; in data set [6] (1.5 T), 4.7^(1) (s·mmol/L)^−1; in data set [6] (3 T), 4.3^(1) (s·mmol/L)^−1; in data set [7] (0.47 T), 8.7^(1) (s·mmol/L)^−1; in [7] (1.5 T), 6.9^(1) (s·mmol/L)^−1; in [7] (3 T) it was 6.2^(1) (s·mmol/L)^−1. The molar relaxivity in data set [8] (0.47 T, Schuhmann-Giampieri et al.) is given as 11.0^(2) (s·mmol/L)^−1; in data set [8] (1.5 T, Rohrer et al.) it was 7.3 (s·mmol/L)^−1; in data set [9], 16.6^(2) (s·mmol/L)^−1. In data set [3], the “molar relaxivity in plasma compared with bile” value is “significantly higher”. The “molar relaxivity in liver cells (hepatocytes) compared with plasma” value in data set [5] (liver cells (hepatocytes) vs plasma) is recorded as “significantly higher”.
